Columns and labels:
[1] = tested on: hepatic branch of the vagus; assay: Perivagal capsaicin: vagal nerve immunohistochemistry and transmission electron microscopy; format: in vivo, rats; conditions: 7 days after perivagal application
Procedure: SD rats were treated with perivagal application of vehicle or capsaicin, 7 days prior to removal of the hepatic vagal nerves from vehicle-treated rats (veh) and capsaicin-treated rats (cap), and the esophgeal branch of the posterior vagal trunk from capsaicin-treated rats (eso). (A) Immunohistochemistry of the vagal nerves with anti-calcitonin gene-related peptide (CGRP) and anti-S100 antibodies. Magnification: ×400. The graphs show immunohistological staining intensities and the data are expressed as percentages of the intensities in vehicle-treated vagal nerve. (B) Transmission electron microscopy of the vagal nerves. While myelinated fibers are intact (arrows), unmyelinated fibers have been selectively degraded in perivagal capsaicin-treated nerves (arrowheads). Representative images from two rats of each group are shown.
After 4 weeks of a high-fat diet starting at 5 weeks of age, male SD rats were subjected to selective hepatic vagal afferent blockade. The hepatic branch of this vagal trunk was exposed as described above, then loosely tied with a cotton string immersed with or without capsaicin (Sigma Chemical Co, St Louis, Mo., USA) dissolved in olive oil (5% wt/vol). The cotton string was removed 30 min later and the abdominal incision was closed. Seven days after perivagal application of capsaicin or vehicle, recombinant adenovirus encoding LacZ or PPARγ2, at a dose of 6.5×10^8 plaque forming units (PFU), was injected via the tail vein.
Livers, WAT and BAT were removed and fixed with 10% formalin and embedded in paraffin. Tissue sections were stained with hematoxylin eosin. Total adipocyte areas were traced manually. Brown and white adipocyte diameters were measured in 150 or more cells per mouse in each group. For vagal nerve immunohistochemistry, SD rats were anesthetized with pentobarbiturate (60 mg/kg), and then perfused transcardially with saline and sequentially with 4% paraformaldehyde in 0.2 M phosphate buffer (PB; pH 7.4). […] The intensities of bands were quantified with the NIH image 1.62 program. […]

[2] = tested on: Male SD rats with high fat diet-induced obesity; assay: Perivagal capsaicin or vehicle 7 days prior to LacZ or PPARγ2 adenovirus; format: in vivo; conditions: perivagal capsaicin treatment
Procedure: Table 1. Afferent vagal activation from the liver is involved in remote effects of hepatic PPARγ2 expression. (Upper Column) Mice were subjected to hepatic vagotomy or sham operation 7 days prior to administration of LacZ or PPARγ2 adenovirus. Resting oxygen consumption (VO2) was measured on day 3 after adenoviral injection. Mice were sacrificed after a 10 hour fast on day 7 after adenoviral injection. (Lower Column) Male SD rats with high fat diet-induced obesity were subjected to application of capsaicin or vehicle to the vagal hepatic branch 7 days prior to administration of LacZ or PPARγ2 adenovirus. Seven days after adenoviral administration, epididymal fat weights were determined. P values: compared to LacZ-mice, by unpaired t test. n.s.: not significant.
Hepatic vagotomy involves dissection of both afferent and efferent vagal branches innervating the liver. To determine whether the remote effects of hepatic PPARγ2 expression are mediated by the afferent vagus, we applied a specific afferent neurotoxin, capsaicin, to the hepatic branch of the vagus of diet-induced obese male SD rats. Seven days after perivagal application of capsaicin or vehicle, we administered recombinant adenovirus encoding LacZ or PPARγ2. […] These observations indicate selective de-afferentation of the hepatic branch of the vagus. […]

[3] = tested on: PPARγ2-mice and LacZ-mice; assay: Bupranolol loading test (serum FFA); format: in vivo; conditions: fed state, 10 mg/kg intraperitoneal
Procedure: (A) Plasma lipid parameters (left: total cholesterol, middle: triglyceride (TG), right: free fatty acids (FFA)) in LacZ-mice (white bars) and PPARγ2-mice (black bars) on day 7 after adenoviral administration were measured in the 10 hour fasted state. (B-C) Relative amounts of UCP1 (left), PGC-1α (middle) and HSL (right) in brown adipose tissue (B) and epididymal fat tissue (C) from ad libitum-fed LacZ-mice (white bars) and PPARγ2-mice (black bars) on day 7 after adenoviral administration. (D) A pan-β adrenergic blocker, bupranolol, was injected intraperitoneally into LacZ-mice (open circles) and PPARγ2-mice (closed circles) in the fed state, on day 5 after adenoviral administration, followed by measurement of serum FFA levels. Data were expressed as percentages of serum FFA levels immediately before intraperitoneal bupranolol loading (10 mg/kg of body weight). Date are presented as mean±SD. **P<0.01 and *P<0.05, compared to control mice, by unpaired t test.
Glucose tolerance tests were performed on mice fasted for 10 hours as previously described (Y. Ishigaki et al., Diabetes 54, 322 (2005)). Insulin tolerance tests were performed on ad libitum fed mice. […] Serum FFA levels were measured immediately before and at 30 and 60 min after injection of inraperitoneal bupranolol (10 mg/kg of body weight, Kaken Pharmaceutical Co., Ltd. Tokyo, Japan).

| SMILES | unmyelinated fibers in the vagal hepatic branch (electron microscopy) [1] | Expression of calcitonin gene-related peptide in vagal nerve ([1]; versus vehicle) | immunoreactivity for S100 proteins ([1]; versus vehicle) | hepatic PPARγ2 expression-induced decrease in WAT weight [2] | serum FFA ([3]; LacZ-mice) | serum FFA ([3]; PPARγ2-mice) |
| --- | --- | --- | --- | --- | --- | --- |
| COc1cc(CNC(=O)CCCC/C=C/C(C)C)ccc1O [capsaicin] | selective degradation | markedly decreased | similar | completely blocked | – | – |
| Cc1ccc(Cl)c(OCC(O)CNC(C)(C)C)c1 (stereo not drawn) [bupranolol] | – | – | – | – | no effect | decreased |

Source: US7815895B2, “Method for activating efferent sympathetic nerves innervating adipose tissues to improve obesity and symptoms associated therewith” (priority 2007, dated 2010)
